The test system of one assay is NCI-H2009. The experiment in a line: relative viability (nuclei count vs DMSO), 5 days (fraction); higher = more cells survive. To be noted: first compound 2.53 µM. Put shortly:
(§1)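 Cells from lung cancer lines were seeded into 1536-well plates and, one day later, dosed by pin tool. Treatments were either a single drug or a fixed dose of an anchor drug with five library-drug doses (not always all listed) in √10 steps. After 5 days, nuclei were stained in a one-step fixation (final 0.05% Triton X-100, 1% formaldehyde, 1 ug/ml Hoechst) and counted on 4× images, and relative viability is the treated-to-vehicle nuclei ratio, as the median of duplicate plates.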
The molecule `CCCCCCCCCCCC1=C(O)C(=O)C=C(O)C1=O` [Embelin] + O=C(CCCCCCC(=O)Nc1ccccc1)NO [Vorinostat] (partner 1 µM) registered a relative viability of 0.705.
Still for that read-out and setting: to `CCCCCCCCCCCC1=C(O)C(=O)C=C(O)C1=O` [Embelin] + O=C(c1cc(Cc2n[nH]c(=O)c3ccccc23)ccc1F)N1CCN(C(=O)C2CC2)CC1 [Olaparib] (partner 8 µM) belongs 0.71.
Still for that read-out and setting: to `CCCCCCCCCCCC1=C(O)C(=O)C=C(O)C1=O` [Embelin] + Cc1cc(Nc2cc(N3CCN(C)CC3)nc(Sc3ccc(NC(=O)C4CC4)cc3)n2)n[nH]1 [Tozasertib] (partner 0.1 µM) belongs 0.798; to `CCCCCCCCCCCC1=C(O)C(=O)C=C(O)C1=O` [Embelin] + Nc1ncn([C@H]2C[C@H](O)[C@@H](CO)O2)c(=O)n1 [Decitabine] (partner 2 µM), 0.369; to `CCCCCCCCCCCC1=C(O)C(=O)C=C(O)C1=O` [Embelin] + CC(=O)c1c(C)c2cnc(Nc3ccc(N4CCNCC4)cn3)nc2n(C2CCCC2)c1=O [Palbociclib] (partner 0.5 µM), 0.208.

Still in this assay, the particulars now being: first compound 8 µM.
As for `CCCCCCCCCCCC1=C(O)C(=O)C=C(O)C1=O` [Embelin] + O=C(CCCCCCC(=O)Nc1ccccc1)NO [Vorinostat] (partner 1 µM), the relative viability amounted to 0.748.
The same measure, in the same setting: the figure for `CCCCCCCCCCCC1=C(O)C(=O)C=C(O)C1=O` [Embelin] + O=C(c1cc(Cc2n[nH]c(=O)c3ccccc23)ccc1F)N1CCN(C(=O)C2CC2)CC1 [Olaparib] (partner 8 µM) is 0.696; for `CCCCCCCCCCCC1=C(O)C(=O)C=C(O)C1=O` [Embelin] + Cc1cc(Nc2cc(N3CCN(C)CC3)nc(Sc3ccc(NC(=O)C4CC4)cc3)n2)n[nH]1 [Tozasertib] (partner 0.1 µM) it is 0.714.
Take `CCCCCCCCCCCC1=C(O)C(=O)C=C(O)C1=O` [Embelin] + Nc1ncn([C@H]2C[C@H](O)[C@@H](CO)O2)c(=O)n1 [Decitabine] (partner 2 µM): the relative viability amounted to 0.351.
Same read-out and setting: to `CCCCCCCCCCCC1=C(O)C(=O)C=C(O)C1=O` [Embelin] + CC(=O)c1c(C)c2cnc(Nc3ccc(N4CCNCC4)cn3)nc2n(C2CCCC2)c1=O [Palbociclib] (partner 0.5 µM) belongs 0.186.

The subject of a further assay is NCI-H2126. The assay is described as above. To be noted: first compound 0.08 µM. In outline: as §1
Consider `CCCCCCCCCCCC1=C(O)C(=O)C=C(O)C1=O` [Embelin] + O=C(CCCCCCC(=O)Nc1ccccc1)NO [Vorinostat] (partner 1 µM), for which the relative viability was found to be 0.803.
On the same count and under the same terms, to `CCCCCCCCCCCC1=C(O)C(=O)C=C(O)C1=O` [Embelin] + O=C(c1cc(Cc2n[nH]c(=O)c3ccccc23)ccc1F)N1CCN(C(=O)C2CC2)CC1 [Olaparib] (partner 8 µM) belongs 0.901; to `CCCCCCCCCCCC1=C(O)C(=O)C=C(O)C1=O` [Embelin] + Cc1cc(Nc2cc(N3CCN(C)CC3)nc(Sc3ccc(NC(=O)C4CC4)cc3)n2)n[nH]1 [Tozasertib] (partner 0.1 µM), 0.809; to `CCCCCCCCCCCC1=C(O)C(=O)C=C(O)C1=O` [Embelin] + Nc1ncn([C@H]2C[C@H](O)[C@@H](CO)O2)c(=O)n1 [Decitabine] (partner 2 µM), 0.514.
Same read-out and setting: the figure for `CCCCCCCCCCCC1=C(O)C(=O)C=C(O)C1=O` [Embelin] + CC(=O)c1c(C)c2cnc(Nc3ccc(N4CCNCC4)cn3)nc2n(C2CCCC2)c1=O [Palbociclib] (partner 0.5 µM) is 0.342.

Staying with this assay, now noted: first compound 0.8 µM.
Turning to `CCCCCCCCCCCC1=C(O)C(=O)C=C(O)C1=O` [Embelin] + O=C(CCCCCCC(=O)Nc1ccccc1)NO [Vorinostat] (partner 1 µM), the relative viability came to 0.763.
Still for that read-out and setting: to `CCCCCCCCCCCC1=C(O)C(=O)C=C(O)C1=O` [Embelin] + O=C(c1cc(Cc2n[nH]c(=O)c3ccccc23)ccc1F)N1CCN(C(=O)C2CC2)CC1 [Olaparib] (partner 8 µM) belongs 0.954; to `CCCCCCCCCCCC1=C(O)C(=O)C=C(O)C1=O` [Embelin] + Cc1cc(Nc2cc(N3CCN(C)CC3)nc(Sc3ccc(NC(=O)C4CC4)cc3)n2)n[nH]1 [Tozasertib] (partner 0.1 µM), 0.907; to `CCCCCCCCCCCC1=C(O)C(=O)C=C(O)C1=O` [Embelin] + Nc1ncn([C@H]2C[C@H](O)[C@@H](CO)O2)c(=O)n1 [Decitabine] (partner 2 µM), 0.519.
Take `CCCCCCCCCCCC1=C(O)C(=O)C=C(O)C1=O` [Embelin] + CC(=O)c1c(C)c2cnc(Nc3ccc(N4CCNCC4)cn3)nc2n(C2CCCC2)c1=O [Palbociclib] (partner 0.5 µM): the relative viability is 0.342.

The same assay, now with this note: first compound 2.53 µM.
`CCCCCCCCCCCC1=C(O)C(=O)C=C(O)C1=O` [Embelin] + O=C(CCCCCCC(=O)Nc1ccccc1)NO [Vorinostat] (partner 1 µM) had a relative viability of 0.796.
Same read-out and setting: to `CCCCCCCCCCCC1=C(O)C(=O)C=C(O)C1=O` [Embelin] + O=C(c1cc(Cc2n[nH]c(=O)c3ccccc23)ccc1F)N1CCN(C(=O)C2CC2)CC1 [Olaparib] (partner 8 µM) belongs 0.936; to `CCCCCCCCCCCC1=C(O)C(=O)C=C(O)C1=O` [Embelin] + Cc1cc(Nc2cc(N3CCN(C)CC3)nc(Sc3ccc(NC(=O)C4CC4)cc3)n2)n[nH]1 [Tozasertib] (partner 0.1 µM), 0.919.
Same read-out and setting: to `CCCCCCCCCCCC1=C(O)C(=O)C=C(O)C1=O` [Embelin] + Nc1ncn([C@H]2C[C@H](O)[C@@H](CO)O2)c(=O)n1 [Decitabine] (partner 2 µM) belongs 0.589.
Same read-out and setting: to `CCCCCCCCCCCC1=C(O)C(=O)C=C(O)C1=O` [Embelin] + CC(=O)c1c(C)c2cnc(Nc3ccc(N4CCNCC4)cn3)nc2n(C2CCCC2)c1=O [Palbociclib] (partner 0.5 µM) belongs 0.345.

The assay is the same for the next values; noted with them: first compound 8 µM.
The molecule `CCCCCCCCCCCC1=C(O)C(=O)C=C(O)C1=O` [Embelin] + O=C(CCCCCCC(=O)Nc1ccccc1)NO [Vorinostat] (partner 1 µM) registered a relative viability of 0.6.
Still for that read-out and setting: the figure for `CCCCCCCCCCCC1=C(O)C(=O)C=C(O)C1=O` [Embelin] + O=C(c1cc(Cc2n[nH]c(=O)c3ccccc23)ccc1F)N1CCN(C(=O)C2CC2)CC1 [Olaparib] (partner 8 µM) is 0.892.
On the same count and under the same terms, to `CCCCCCCCCCCC1=C(O)C(=O)C=C(O)C1=O` [Embelin] + Cc1cc(Nc2cc(N3CCN(C)CC3)nc(Sc3ccc(NC(=O)C4CC4)cc3)n2)n[nH]1 [Tozasertib] (partner 0.1 µM) belongs 0.878; to `CCCCCCCCCCCC1=C(O)C(=O)C=C(O)C1=O` [Embelin] + Nc1ncn([C@H]2C[C@H](O)[C@@H](CO)O2)c(=O)n1 [Decitabine] (partner 2 µM), 0.513; to `CCCCCCCCCCCC1=C(O)C(=O)C=C(O)C1=O` [Embelin] + CC(=O)c1c(C)c2cnc(Nc3ccc(N4CCNCC4)cn3)nc2n(C2CCCC2)c1=O [Palbociclib] (partner 0.5 µM), 0.339.

Source of the values: the supplement of paper PMC10307832.
